Assay in all cases: relative viability (nuclei count vs DMSO), 5 days (fraction); higher = more cells survive
Compound in assay [1]: C[C@]1(O)C[C@@H](c2nc(-c3ccc4ccc(-c5ccccc5)nc4c3)c3c(N)nccn32)C1 [Linsitinib] + COc1cc2c(Oc3ccc(NC(=O)C4(C(=O)Nc5ccc(F)cc5)CC4)cc3F)ccnc2cc1OCCCN1CCOCC1 [Foretinib] (partner 0.25 µM)
In short, it runs like this:
(§1)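 Nuclei were stained with Hoechst during a one-step fixation (final 0.05% Triton X-100, 1% formaldehyde, 1 ug/ml Hoechst) carried out 5 days after dosing, then counted on 4× images. The cells, lung cancer lines in 1536-well plates, had been dosed by pin tool the day after seeding with one drug alone or a fixed anchor-drug dose plus five library-drug doses (not always all listed) in √10 steps. Relative viability is the nuclei count in treated wells divided by that in vehicle wells, and each value is the median of duplicate plates.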

Compound in assay [2]: Cc1ccc(C(=O)N(CCCN)[C@@H](c2nc3cc(Cl)ccc3c(=O)n2Cc2ccccc2)C(C)C)cc1 [Ispinesib] + COc1cc2c(Oc3ccc(NC(=O)C4(C(=O)Nc5ccc(F)cc5)CC4)cc3F)ccnc2cc1OCCCN1CCOCC1 [Foretinib] (partner 0.25 µM)
The procedure, abridged: as §1

Compound in assay [3]: Cc1ccc(C(=O)N(CCCN)[C@@H](c2nc3cc(Cl)ccc3c(=O)n2Cc2ccccc2)C(C)C)cc1 [Ispinesib] + N=C(N)NC(=N)NCCc1ccccc1 [Phenformin] (partner 250 µM)
The procedure, abridged:
as §1

Compound in assay [4]: Cc1ccc(C(=O)N(CCCN)[C@@H](c2nc3cc(Cl)ccc3c(=O)n2Cc2ccccc2)C(C)C)cc1 [Ispinesib] + Nc1ncn([C@H]2C[C@H](O)[C@@H](CO)O2)c(=O)n1 [Decitabine] (partner 2 µM)
In short, it runs like this: as §1

On to UMC-11, for which the relative viability in assay [1] (first compound 0.01 µM) was 0.976; in assay [1] (first compound 0.03162 µM) it was 0.89; in assay [1] (first compound 0.1 µM), 1.03; in assay [1] (first compound 1 µM) it was 1.02; in assay [2] (first compound 0.001 µM), 1.03; in assay [2] (first compound 0.003162 µM), 0.995. The relative viability in assay [2] (first compound 0.01 µM) was determined as 0.889; in assay [2] (first compound 0.03162 µM) it was 0.322; in assay [2] (first compound 0.1 µM), 0.233; in assay [3] (first compound 0.001 µM), 0.346; in assay [3] (first compound 0.003162 µM), 0.327; in assay [3] (first compound 0.01 µM) it was 0.286. Also, the relative viability in assay [3] (first compound 0.03162 µM) was determined as 0.179; in assay [3] (first compound 0.1 µM), 0.193; in assay [4] (first compound 0.001 µM), 0.67; in assay [4] (first compound 0.003162 µM), 0.904; in assay [4] (first compound 0.01 µM) it was 0.583; in assay [4] (first compound 0.03162 µM), 0.28. Also, in assay [4] (first compound 0.1 µM), the relative viability worked out at 0.23.

These data come from the supplement of paper PMC10307832.
